Measurements taken from patent EP2140864A2 (H. Lundbeck A/S, priority 2001, dated 2002).
Like-named read-outs stand apart in the source and are kept apart here.

Columns and labels:
human 5HT6 = target: T1, human 5HT6 (Homo sapiens, UniProt P50406); assay: Radioligand binding, 5-HT6 receptor
T1 construct: expressed in transfected cells
Description: Other 5-HT Receptors: Other serotonin receptor binding assays were performed according to published methods: rat 5HT2C receptor (Julius et al., 1988); and 5-HT6 (Monsma, et al., 1993). The binding assays using the 5-HT4 receptor were performed according to the procedures described in U.S. Patent No. 5,766,879, the disclosure of which is hereby incorporated by reference in its entirety into this application.
(§1) Binding data were analyzed using nonlinear regression and statistical techniques available in the GraphPAD Prism package (San Diego, CA). Enzymatic assay data were derived from a standard curve of reference compound data.

human 5HT7 = target: T2, human 5HT7 (Homo sapiens, UniProt P34969); assay: Radioligand binding, 5HT7 receptor ([3H]-serotonin)
T2 construct: expressed in transfected cells
Description: (§2) Human 5HT1B, 5HT1D, 5HT1E, 5HT1F, and 5HT7 Receptors: The cell lysates of LM(tk-) clonal cell line stably transfected with the genes encoding each of these 5HT receptor-subtypes were prepared as described above. Cell membranes were suspended in 50mM Tris-HCl buffer (pH 7.4 at 37°C) containing 10 mM MgCl2, 0.2 mM EDTA, 10 µM pargyline, and 0.1% ascorbate. […] Nonspecific binding was determined in the presence of 10 µM serotonin. The bound radioligand was separated by filtration through GF/B filters using a cell harvester.
as §1

human α1A adrenoceptor = target: T3, human α1A adrenoceptor (Homo sapiens, UniProt P35348); assay: Radioligand binding, α1A adrenergic receptor
T3 construct: expressed in transfected cells
T3 sequence (P35348 1-466): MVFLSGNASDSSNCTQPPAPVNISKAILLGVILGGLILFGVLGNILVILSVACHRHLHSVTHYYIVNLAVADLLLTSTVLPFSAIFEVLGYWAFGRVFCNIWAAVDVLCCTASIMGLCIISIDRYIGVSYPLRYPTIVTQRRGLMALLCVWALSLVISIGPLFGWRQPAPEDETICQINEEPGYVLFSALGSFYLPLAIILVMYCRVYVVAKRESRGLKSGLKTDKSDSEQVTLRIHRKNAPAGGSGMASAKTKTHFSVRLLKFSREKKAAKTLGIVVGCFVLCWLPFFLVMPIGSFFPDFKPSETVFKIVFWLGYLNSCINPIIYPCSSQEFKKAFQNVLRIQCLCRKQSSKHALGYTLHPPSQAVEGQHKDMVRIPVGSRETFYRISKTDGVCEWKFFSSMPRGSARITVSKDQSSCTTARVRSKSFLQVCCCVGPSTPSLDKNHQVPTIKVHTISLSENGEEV
Text: Other receptors: Cell membranes expressing human dopamine D1, D2, D4 and rat D3 receptors were purchased through BioSignal, Inc. (Montreal, Canada). Binding assays using the histamine H1 receptor; dopamine receptors; and α1A, α1E, and α2 adrenergic receptors may be carried out according to the procedures described in U.S. Patent No. 5,780,485, the disclosure of which is hereby incorporated by reference in its entirety into this application. Binding assays using the dopamine D5 receptor may be carried out according to the procedures described in U.S. Patent No. 5,882,855, the disclosure of which is hereby incorporated by reference in its entirety into this application. Binding assays for the human α1D adrenergic receptor may be carried out according to the procedures described in U.S. Patent No. 6,156,518, the disclosure of which is hereby incorporated by reference in its entirety into this application.
as §1

human 5HT1E = target: T4, human 5HT1E (Homo sapiens, UniProt P28566); assay: Radioligand binding, 5HT1E receptor ([3H]-serotonin)
T4 construct: expressed in transfected cells
Description: as §2, §1

human GAL2 receptor = target: T5, human GAL2 receptor (Homo sapiens, UniProt O43603); assay: Radioligand binding at cloned human GAL2 receptor
T5 construct: expressed in transfected cells
T5 sequence (O43603 1-387): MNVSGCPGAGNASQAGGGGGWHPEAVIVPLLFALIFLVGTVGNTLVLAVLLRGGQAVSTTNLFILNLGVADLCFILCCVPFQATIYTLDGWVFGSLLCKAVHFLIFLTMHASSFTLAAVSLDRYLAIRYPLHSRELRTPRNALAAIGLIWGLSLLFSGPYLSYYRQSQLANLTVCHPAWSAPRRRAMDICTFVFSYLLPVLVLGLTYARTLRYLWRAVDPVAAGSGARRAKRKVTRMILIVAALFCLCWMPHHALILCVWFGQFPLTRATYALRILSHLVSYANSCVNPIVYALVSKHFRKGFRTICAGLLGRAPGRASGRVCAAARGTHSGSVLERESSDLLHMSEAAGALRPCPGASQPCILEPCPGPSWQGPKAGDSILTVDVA
Method in brief: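 Membranes from CHO cells stably expressing human GAL2 and LM(tk-) cells stably expressing human GAL1, resuspended in binding buffer (10 mM NaCl, 20 mM HEPES, pH 7.4). Binding data fitted by nonlinear regression.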

[1] = Table 8; Ki h5HT6 divided by Ki hGAL3
[2] = Table 8; Ki h5HT7 divided by Ki hGAL3
[3] = Table 10; Ki hα1A divided by Ki hGAL3
[4] = Table 8; Ki h5HT1E divided by Ki hGAL3
[5] = pyrimidines, read-out: Ki GalR2

T1 sequence (P50406 whole entry): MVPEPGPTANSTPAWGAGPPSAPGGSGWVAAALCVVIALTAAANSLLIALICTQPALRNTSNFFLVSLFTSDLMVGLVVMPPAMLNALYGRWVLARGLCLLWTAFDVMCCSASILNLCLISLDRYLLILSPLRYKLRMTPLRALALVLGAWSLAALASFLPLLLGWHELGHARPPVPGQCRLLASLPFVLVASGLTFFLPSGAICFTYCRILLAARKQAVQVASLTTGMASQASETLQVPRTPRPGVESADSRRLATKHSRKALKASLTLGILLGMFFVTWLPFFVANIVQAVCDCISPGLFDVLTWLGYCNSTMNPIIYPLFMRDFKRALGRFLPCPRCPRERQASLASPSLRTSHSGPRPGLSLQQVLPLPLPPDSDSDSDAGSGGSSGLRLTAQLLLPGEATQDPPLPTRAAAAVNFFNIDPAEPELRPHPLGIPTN
T4 sequence (P28566 whole entry): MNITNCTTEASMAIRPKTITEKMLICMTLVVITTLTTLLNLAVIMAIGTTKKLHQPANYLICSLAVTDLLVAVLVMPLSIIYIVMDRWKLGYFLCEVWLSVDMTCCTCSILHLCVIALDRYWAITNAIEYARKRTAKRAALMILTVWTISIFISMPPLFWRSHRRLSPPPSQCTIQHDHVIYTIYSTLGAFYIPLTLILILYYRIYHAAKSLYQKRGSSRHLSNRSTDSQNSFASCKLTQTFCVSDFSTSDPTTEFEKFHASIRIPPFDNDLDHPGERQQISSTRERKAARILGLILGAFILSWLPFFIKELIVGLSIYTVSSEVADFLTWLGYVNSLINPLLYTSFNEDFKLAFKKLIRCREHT
T2 sequence (P34969 1-445 isoform P34969-2): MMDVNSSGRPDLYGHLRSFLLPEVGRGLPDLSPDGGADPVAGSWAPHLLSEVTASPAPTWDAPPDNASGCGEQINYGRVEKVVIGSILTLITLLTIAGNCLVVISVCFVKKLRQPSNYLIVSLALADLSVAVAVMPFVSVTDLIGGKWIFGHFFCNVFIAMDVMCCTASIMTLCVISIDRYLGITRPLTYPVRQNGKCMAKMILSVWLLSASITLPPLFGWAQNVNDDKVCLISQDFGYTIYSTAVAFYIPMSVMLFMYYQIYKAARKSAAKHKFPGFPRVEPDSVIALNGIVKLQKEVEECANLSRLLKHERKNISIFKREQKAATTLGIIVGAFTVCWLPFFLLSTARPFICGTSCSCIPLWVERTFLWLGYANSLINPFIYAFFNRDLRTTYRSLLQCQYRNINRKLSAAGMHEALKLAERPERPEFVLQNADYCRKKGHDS

Compound | Ki (human 5HT6; Table 7; read-out: h5HT6 Ki) [nM] | selectivity ratio h5HT6 (human 5HT6; [1]) | Ki (human 5HT7; Table 7; read-out: h5HT7 Ki) [µM] | selectivity ratio h5HT7 (human 5HT7; [2]) | Ki (human α1A adrenoceptor; Table 9; read-out: hα1A Ki) [µM] | selectivity ratio hα1A (human α1A adrenoceptor; [3]) | Ki (human 5HT1E; Table 7; read-out: h5HT1E Ki) [µM] | selectivity ratio h5HT1E (human 5HT1E; [4]) | Ki (human GAL2 receptor; [5]) [nM] | Ki (human 5HT6; read-out: h5HT6 Ki; Table 7) [nM] | Ki (human 5HT7; read-out: h5HT7 Ki; Table 7) [µM] | Ki (human α1A adrenoceptor; read-out: hα1A Ki; Table 9) [µM] | Ki (human 5HT1E; read-out: h5HT1E Ki; Table 7) [µM] | Ki (human GAL2 receptor; read-out: Ki GalR2, pyrimidines) [nM] | Ki (human GAL2 receptor; indolones, read-out: Ki GalR2) [nM]
Cc1ccc(Nc2cc(N3CCCCC3)nc(N(C)CCc3c[nH]c4ccccc34)n2)cc1 [Example 11] | 800 | 9 | 1.01 | 11 | 0.926 | 10 | 9.17 | >100 | 681 | – | – | – | – | – | –
CN(CCc1c[nH]c2ccccc12)c1nc(Nc2ccc(F)c(F)c2)cc(N2CCCCC2)n1 [Example 15] | 1460 | 20 | 2.53 | >30 | 3.39 | 46 | 11 | >100 | 624 | – | – | – | – | – | –
COc1cccc(Nc2cc(N3CCCCC3)nc(N(C)CCc3c[nH]c4ccccc34)n2)c1 [Example 17] | 711 | 8 | 1.8 | 21 | 0.996 | 11 | 33.5 | >100 | 2090 | – | – | – | – | – | –
Cc1ccc(Nc2cc(N3CCCCC3)nc(N(C)CCc3ccccc3)n2)cc1 [Example 22] | 2260 | >30 | 2.67 | >30 | 1.28 | >30 | 13.2 | >100 | 176 | – | – | – | – | – | –
Cc1ccc(Nc2cc(N3CCCCC3)nc(N3CCN(c4ncccc4C(F)(F)F)CC3)n2)cc1 [Example 34] | 38900 | >100 | 4.44 | >100 | 3.76 | >100 | 28.3 | >100 | 168 | – | – | – | – | – | –
COC[C@@H]1[C@@H](c2ccccc2)OCCN1c1nc(Nc2ccc(C)cc2)cc(N2CCCCC2)n1 [Example 49] | – | – | – | >30 | – | >30 | – | >100 | – | 13 | 12.3 | 6.65 | 23.9 | 3270 | –
CN(C)c1cc(Nc2ccc(Cl)c(Cl)c2)nc(Nc2ccccc2)n1 [Example 60] | 47500 | >100 | 3.24 | >30 | 13.6 | >100 | 1.18 | 14 | > 5000 | – | – | – | – | – | –
Cc1ccc(Nc2cc(N(C)C)nc(N(C)CCc3c[nH]c4ccccc34)n2)cc1 [Example 77] | 503 | 6 | 1.55 | 20 | 0.834 | 11 | 5.89 | >30 | 709 | – | – | – | – | – | –
O=C1C(=Nc2cccc(C(F)(F)F)c2)c2ccccc2N1c1ccccc1 [Example 92, 1-PHENYL-3- [[3-(TRIFLUOROMETHYL)PHENYL]IMINO]-1,3-DIHYDRO-2H-INDOL-2-ONE] | – | >100 | – | – | – | – | – | >100 | – | – | – | – | – | – | –
O=C1C(=Nc2cccc(Cl)c2)c2ccccc2N1c1ccccc1 [Example 94, 3-[(3-CHLOROPHENYL)IMINO]-1-PHENYL-1,3-DIHYDRO-2H-INDOL-2-ONE] | 3650 | >30 | 8.02 | >100 | 12.7 | >100 | 25.2 | >100 | – | – | – | – | – | – | > 10000
O=C1C(=Nc2ccc(C(F)(F)F)cc2)c2ccccc2N1c1ccccc1 [Example 95, 1-PHENYL-3-[[4-(TRIFLUOROMETHYL)PHENYL]IMINO]-1,3-DIHYDRO-2H-INDOL-2-ONE] | 21500 | >100 | 11.6 | >100 | 13.1 | >100 | 27.2 | >100 | – | – | – | – | – | – | > 10000
O=C1C(=Nc2ccc(Cl)cc2)c2ccccc2N1c1ccccc1 [Example 97, 3-[(4-CHLOROPHENYL)IMINO]-1-PHENYL-1,3-DIHYDRO-2H-INDOL-2-ONE] | 29100 | >100 | 11.3 | >100 | 16.9 | >100 | 22.7 | >100 | – | – | – | – | – | – | > 10000
O=C1C(=Nc2ccc(Br)cc2)c2ccccc2N1c1ccccc1 [Example 98, 3-[(4-BROMOPHENYL)IMINO]-1-PHENYL-1,3-DIHYDRO-2H-INDOL-2-ONE] | 14000 | >100 | 8.46 | >100 | 14.5 | >100 | 16.2 | >100 | – | – | – | – | – | – | > 10000
O=C1C(=Nc2cc(Cl)cc(Cl)c2)c2ccccc2N1c1ccccc1 [Example 103, 3-[(3,5-DICHLOROPHENYL)IMINO]-1-PHENYL-1,3-DIHYDRO-2H-INDOL-2-ONE] | – | – | – | – | – | – | – | – | – | – | – | – | – | – | > 10000
